Assay results published in patent US11078250B2, “High-activity long-acting hypoglycemic fusion protein as well as preparation method and medical application thereof” (China Pharmaceutical University, priority 2016, dated 2021).
“And” between values parts separate entries of the source, which are not always exact repeats. Equal entries are not always repeated.

Experiments:
[1] = test system: type II diabetic mice C57BL/KsJ-db/db (BKS.Cg-Dock7m+/+Leprdb/JNju); assay: Acute hypoglycemic test in type II diabetic model mice; format: in vivo, mouse
Method: (§1) 50 six-week-old type II diabetic mice C57BL/KsJ-db/db (namely, S.Cg-Dock7^m+/+Lepr^db/JNju mouse) and 10 control mice C57BLKS/JNju are purchased from Nanjing Biomedical Research Institute of Nanjing University (certificate number: 201602819, and license number: SCXK (Su) 2015-0001). The mouse are fed in a SPF-grade animal house with a humidity of 40-60% at room temperature of 25° C. for 12 h each under light and dark conditions, and an experiment is carried out after adaptive feeding for one week. Blood glucose concentration is measured using a Roche Accu-Chek® Performa glucometer and blood glucose test paper. Experiment grouping and administration modes are seen in Table 1.
Blood glucose levels of each group of mouse are detected before administration. As shown in Table 2 and FIG. 7, blood glucose levels of a model group, Ex-4, EX-mhIgG1Fc and EX-L21K-mhIgG1Fc (5-20 nmol/kg) are respectively 24±0.81, 24.53±1.20, 23.31±1.05, 23.04±1.23, 22.41±1.51 and 24.99±1.43 mM. There is a significant difference (P<0.0001) compared with 8.58±0.25 mM in a normal control group. […] Moreover, there is no difference between the drug groups and the model group, and subsequent experiments can be carried out.
After mouse are administrated, blood glucose levels after administration for 1, 2, 4, 8, 12, 24, 36, 48, 60, 72, 96 and 120 h are continuously monitored. […] The blood glucoses of mouse in Ex-4 group are gradually raised back to a level before administration, and the blood glucoses of mouse in EX-mhIgG1Fc group are gradually raised back to a level before administration after administration for 48 h. The hypoglycemic effects of various dosage group of EX-L21K-mhIgG1Fc are more durable, wherein, the hypoglycemic effect of 5 nmol/kg EX-L21K-mhIgG1Fc lasts until 72 h after administration (P<0.01 vs model group), the hypoglycemic effects of 10 nmol/kg EX-L21K-mhIgG1Fc (P<0.01 vs model group) and 20 nmol/kg EX-L21K-mhIgG1Fc (P<0.0001 vs model group) are still present after administration for 96 h.
Compared with Ex-4, AUCs0-24 h of various groups of EX-mhIgG1Fc and EX-L21K-mhIgG1Fc (5-20 nmol/kg) drugs has no significant difference.

[2] = test system: type II diabetic mice C57BL/KsJ-db/db (BKS.Cg-Dock7m+/+Leprdb/JNju); assay: Intraperitoneal glucose tolerance test (IPGTT); format: in vivo, mouse; settings: for IPGTT glucose AUC0-180 min: n=8, mean ± SEM; for Fasting blood glucose vs model group: fasted 18 h, Ex-4 and EX-mhIgG1Fc 10 nmol/kg, EX-L21K-mhIgG1Fc 5-20 nmol/kg, ip, P<0.0001
Method: as §1
Various groups of animals are fasted overnight for 18 h before test. Firstly, normal saline, Ex-4, EX-mhIgG1Fc and EX-L21K-mhIgG1Fc are respectively intraperitoneally injected. After administration for 2 h, 1.5 g/kg glucose is intraperitoneally injected to each mouse, blood is taken via caudal vein, and blood glucose concentrations in −120, 0, 15, 30, 45, 60, 90, 120 and 180 min are recorded. During the test, animals are normally dieted and supplied with water.
Area under the curve is further applied for analysis.

[3] = cited from earlier work
[4] = 0 h (before administration), 10 nmol/kg ip, n=8, mean ± SEM
[5] = 1 h after administration, 10 nmol/kg ip
[6] = 2 h after administration, 10 nmol/kg ip
[7] = 4 h after administration, 10 nmol/kg ip
[8] = 8 h after administration, 10 nmol/kg ip
[9] = 12 h after administration, 10 nmol/kg ip
[10] = 24 h after administration, 10 nmol/kg ip
[11] = 36 h after administration, 10 nmol/kg ip
[12] = 48 h after administration, 10 nmol/kg ip
[13] = 60 h after administration, 10 nmol/kg ip
[14] = 72 h after administration, 10 nmol/kg ip
[15] = 96 h after administration, 10 nmol/kg ip
[16] = 120 h after administration, 10 nmol/kg ip
[17] = Ex-4 and EX-mhIgG1Fc 10 nmol/kg, EX-L21K-mhIgG1Fc 5-20 nmol/kg, ip
[18] = 10 nmol/kg ip 120 min before 1.5 g/kg glucose ip

In the case of “EX-L21K-mhIgG1Fc: fusion protein of Exendin-4 mutant EX-L21K, Gly-rich linker peptide, optimally mutated human IgG1 hinge region and constant regions CH2 and CH3; SEQ ID NO: 11”, the Blood glucose ([1]; 0 h (before administration), 5 nmol/kg ip, n=8, mean ± SEM) is reported as 23.04 ± 1.23 mM and 23.04 mM, the Blood glucose [1, 4] is reported as 22.41 ± 1.51 mM and 22.41 mM and the Blood glucose ([1]; 0 h (before administration), 20 nmol/kg ip, n=8, mean ± SEM) is reported as 24.99 ± 1.43 mM and 24.99 mM. For the same substance, the “Time after administration to which hypoglycemic effect lasts” value (“Time … to which hypoglycemic effect lasts” for short) ([1]; 5 nmol/kg ip, P<0.01 vs model group) was 72 h, the “Blood glucose AUC0-24 h” value ([1]; 5 nmol/kg ip, n=8, mean ± SEM) was 296.69 ± 34.39 mM·h and the “Time … to which hypoglycemic effect lasts” value ([1]; 10 nmol/kg ip) was no less than 96 h. For the same substance, the “Blood glucose AUC0-24 h” value ([1]; 10 nmol/kg ip, n=8, mean ± SEM) was 237.34 ± 16.87 mM·h, the “Time … to which hypoglycemic effect lasts” value ([1]; 20 nmol/kg ip, P<0.0001 vs model group) was no less than 96 h and the “Blood glucose AUC0-24 h” value ([1]; 20 nmol/kg ip, n=8, mean ± SEM) was 230.80 ± 20.09 mM·h. For the same substance, the “Time … to which hypoglycemic effect lasts” value ([1]; 5-20 nmol/kg ip) was 96 h, the Blood glucose ([1]; 1 h after administration, 5 nmol/kg ip) was 15.18 mM and the Blood glucose [1, 5] was 15.2 mM. The Blood glucose ([1]; 1 h after administration, 20 nmol/kg ip) was 14.98 mM, the Blood glucose ([1]; 2 h after administration, 5 nmol/kg ip) was 11.28 mM and the Blood glucose [1, 6] was 14.3 mM. For the same substance, the Blood glucose ([1]; 2 h after administration, 20 nmol/kg ip) was 12.46 mM, the Blood glucose ([1]; 4 h after administration, 5 nmol/kg ip) was 9.16 mM and the Blood glucose [1, 7] was 8.48 mM. The Blood glucose ([1]; 4 h after administration, 20 nmol/kg ip) was 9.54 mM, the Blood glucose ([1]; 8 h after administration, 5 nmol/kg ip) was 9.91 mM and the Blood glucose [1, 8] was 8.01 mM. The Blood glucose ([1]; 8 h after administration, 20 nmol/kg ip) was 8.73 mM, the Blood glucose ([1]; 12 h after administration, 5 nmol/kg ip) was 13.06 mM and the Blood glucose [1, 9] was 10.13 mM. For the same substance, the Blood glucose ([1]; 12 h after administration, 20 nmol/kg ip) was 53 mM, the Blood glucose ([1]; 24 h after administration, 5 nmol/kg ip) was 13.58 mM and the Blood glucose [1, 10] was 8.5 mM. For the same substance, the Blood glucose ([1]; 24 h after administration, 20 nmol/kg ip) was 7.49 mM, the Blood glucose ([1]; 36 h after administration, 5 nmol/kg ip) was 17.34 mM and the Blood glucose [1, 11] was 12.9 mM. For the same substance, the Blood glucose ([1]; 36 h after administration, 20 nmol/kg ip) was 11.95 mM, the Blood glucose ([1]; 48 h after administration, 5 nmol/kg ip) was 16.46 mM and the Blood glucose [1, 12] was 12.96 mM. For the same substance, the Blood glucose ([1]; 48 h after administration, 20 nmol/kg ip) was 12.2 mM, the Blood glucose ([1]; 60 h after administration, 5 nmol/kg ip) was 22.39 mM and the Blood glucose [1, 13] was 21.36 mM. For the same substance, the Blood glucose ([1]; 60 h after administration, 20 nmol/kg ip) was 21.5 mM, the Blood glucose ([1]; 72 h after administration, 5 nmol/kg ip) was 18.85 mM and the Blood glucose [1, 14] was 17.4 mM. It also gave a Blood glucose ([1]; 72 h after administration, 20 nmol/kg ip) of 14.1 mM, a Blood glucose ([1]; 96 h after administration, 5 nmol/kg ip) of 18.71 mM and a Blood glucose [1, 15] of 17.33 mM. It also gave a Blood glucose ([1]; 96 h after administration, 20 nmol/kg ip) of 14.46 mM, a Blood glucose ([1]; 120 h after administration, 5 nmol/kg ip) of 23.35 mM and a Blood glucose [1, 16] of 22.96 mM. For the same substance, the Blood glucose ([1]; 120 h after administration, 20 nmol/kg ip) was 22.76 mM, the “Blood glucose AUC0-72 h compared with model group” value [1, 17] was “significantly reduced” and the “Blood glucose AUC0-120 h compared with model group” value [1, 17] was “significantly reduced”. For the same substance, the “IPGTT glucose AUC0-180 min” value ([2]; 5 nmol/kg ip 120 min before 1.5 g/kg glucose ip) was 2338 ± 181.2 mM·min, the “IPGTT glucose AUC0-180 min” value [2, 18] was 2035 ± 169.6 mM·min and the “IPGTT glucose AUC0-180 min” value ([2]; 20 nmol/kg ip 120 min before 1.5 g/kg glucose ip) was 2082 ± 119.9 mM·min. The “Fasting blood glucose vs model group” value [2] was “significantly reduced”.
In the case of Exendin-4 [Ex-4, reference compound], the in-vivo half-life period [3] is listed as 3.3˜4 hours, the Blood glucose [1, 4] is listed as 24.53 ± 1.20 mM and 24.53 mM and the “Blood glucose AUC0-24 h” value ([1]; 10 nmol/kg ip, n=8, mean ± SEM) is listed as 374.46 ± 6.20 mM·h. It also gave a Blood glucose [1, 5] of 10.63 mM, a Blood glucose [1, 6] of 10.79 mM and a Blood glucose [1, 7] of 10.71 mM. It also gave a Blood glucose [1, 8] of 15.31 mM, a Blood glucose [1, 9] of 24.43 mM and a Blood glucose [1, 10] of 20.48 mM. The Blood glucose [1, 11] was 26.59 mM, the Blood glucose [1, 12] was 24.76 mM and the Blood glucose [1, 13] was 27.19 mM. For the same substance, the Blood glucose [1, 14] was 25.34 mM, the Blood glucose [1, 15] was 23.68 mM and the Blood glucose [1, 16] was 24.83 mM. The “Blood glucose AUC0-72 h compared with model group” value [1, 17] was “no significant change”, the “Blood glucose AUC0-120 h compared with model group” value [1, 17] was “no significant change” and the “Time after administration at which hypoglycemic effect is exhibited” value [1, 17] was 1 h. The “IPGTT glucose AUC0-180 min” value [2, 18] was 2058 ± 109.5 mM·min and the “Fasting blood glucose vs model group” value [2] was “significantly reduced”.
